Patent publication US20200163984A1, “USE OF ISOVALERYL SPIRAMYCIN I, II AND/OR III IN MANUFACTURING MEDICAMENT FOR TREATING AND/OR PREVENTING TUMOR, AND MEDICAMENT” (SHENYANG FUYANG PHARMACEUTICAL TECHNOLOGY CO., LTD., priority 2017, published 2020)
In brackets after ≈: the same amount, converted by molar mass.

Key:
[1] = system: human large cell lung cancer cells H1299; settings: H1299, MTT, 48 hours
Method: The purpose of the assay is to evaluate the in vitro cell proliferation inhibition or cytotoxic activity of a tested sample.
MCF-7, MDA-MB-231, HepG2, A549, H460, H1299, 786-0, 769-P, U251, A172, HeLa, PC3, PANC-1, TE-1, SGC7901, and HT-29 were adherent tumor cells. The adherent tumor cells in the logarithmic growth phase were selected and digested with trypsin, then were prepared into a 4 to 5×10^4/ml cell suspension by a medium containing 10% fetal bovine serum. And the cell suspension was inoculated in a 96-well culture plate, and each well was 100 μL. The 96-well culture plate was cultured at 37° C. and 5% CO2 for 24 hours. The experimental group was replaced with a new culture medium containing different concentrations of the sample to be tested, namely, isovaleryl spiramycin I, isovaleryl spiramycin II, or isovaleryl spiramycin III, while the control group was replaced with a culture medium containing the same volume of solvent. Each group was set up with 3 parallel wells that were cultured at 37° C. and 5% CO2 for 48 hours. After the supernatant was removed, the wells were washed carefully for 3 times with PBS. And 100 μL of freshly prepared culture medium containing 0.5 mg/ml MTT was added to each well for continuous incubation for 4 hours at 37° C. After the supernatant was removed carefully, 150 μL of DMSO was added to each well, and after the material was mixed for 10 minutes with a micro-oscillator, the optical density value was measured at 492 nm with a microplate reader.
The inhibition rate of the medicament on tumor cell growth is calculated according to the following formula:
Tumor cell growth inhibition rate (%)=[A492 (negative control)−A492 (dosing group)]/A492 (negative control)×100%
And the half-inhibitory concentration (IC50) of the sample is determined therefrom.

[2] = system: transplanted tumor of HL60 cells; assay: HL-60 transplanted tumor in nude mice; settings: for Tumor Volume (mm3) (d30): d 30
Method: (§1) HL-60 cells in a logarithmic growth phase were taken and subjected to a trypan blue exclusion experiment showing that the cell viability was more than 95%, then the cells were subjected to trypsinization, centrifugation, and supernatant removal. Then cell concentration was adjusted to 1×10^7/ml with matrigel, then each nude mouse was inoculated subcutaneously with 0.2 ml of cells at its right armpit and recorded as the first day of inoculation. When the tumor grows to be greater than or equal to 100 mm^3, the mice were randomly divided into 11 groups with 6 mice in each group: isovaleryl spiramycin I groups with doses of 25, 50 and 100 mg/kg, isovaleryl spiramycin II groups with doses of 25, 50 and 100 mg/kg, and isovaleryl spiramycin III groups with doses of 25, 50 and 100 mg/kg. Each group was continuously administered intragastrically for 30 days with a dose of 20 ml/kg. The mice were sacrificed the next day after drug withdrawal and the indicators were tested. The long diameter and short diameter of the tumor, and the weight of each mouse were recorded every 3 days from drug administration to nude mouse sacrifice.
(§2) The body weight of the nude mice and the long diameter (a) and short diameter (b) of the transplanted tumor were measured every 3 days, and the tumor volume (v), relative tumor volume (RTV) and relative tumor proliferation rate (T/C) are calculated respectively according to the following formulas, wherein V=a×b^2/2; RTV=V/V0 (V0 is the tumor volume before administration, V is the tumor volume before sacrifice), and T/C (%)=treatment group RTV/model control group RTV×100%.
(§3) Each mouse was weighed and sacrificed. After the tumor was completely stripped off from the body of the mouse, the non-tumor tissues such as blood stains and fat were removed to weigh the tumor and calculate the tumor growth inhibition rate. The average tumor weight of each group of mice is used as an indicator of efficacy. Tumor growth inhibition rate (%)=(1−the average tumor weight of the treatment group/the average tumor weight of the model group)×100%.

[3] = system: transplanted tumor of human bladder cancer cell T-24; assay: T-24 transplanted tumor in nude mice; settings: for Tumor Volume (mm3) (d30): d 30
Method: as §1, with “Then cell” for “HL-60 cells in a logarithmic growth phase were taken and subjected to a trypan blue exclusion experiment showing that the cell viability was more than 95%, then the cells were subjected to trypsinization, centrifugation, and supernatant removal. Then cell”, “and the body weight of” for “and the weight of”
as §2, §3

[4] = HL-60, high dose (100 mg/kg in method) i.g. 30 days
[5] = HL-60, low dose (25 mg/kg in method) i.g. 30 days
[6] = HL-60, medium dose (50 mg/kg in method) i.g. 30 days
[7] = T-24, high dose (100 mg/kg in method) i.g. 30 days
[8] = T-24, low dose (25 mg/kg in method) i.g. 30 days
[9] = T-24, medium dose (50 mg/kg in method) i.g. 30 days

SMILES: COC1C(OC(C)=O)CC(=O)OC(C)CC=CC=CC(OC2CCC(N(C)C)C(C)O2)C(C)CC(CC=O)C1OC1OC(C)C(OC2CC(C)(O)C(OC(=O)CC(C)C)C(C)O2)C(N(C)C)C1O (centres unmarked) [Isovaleryl spiramycin II, isovaleryl spiramycin II]
- IC50 [1]: 42.24 ± 0.44 µg/mL (≈ 43.6 µM)
- Relative Tumor Proliferation Rate (T/C) [2, 4]: 41.36%
- tumor growth inhibition rate [2, 4]: 51.81%
- Relative Tumor Proliferation Rate (T/C) [2, 5]: 75.39%
- tumor growth inhibition rate [2, 5]: 15.92%
- tumor volume and relative tumor volume compared with the model group ([2]; HL-60, low, medium and high doses, P<0.05): significantly lower
- Relative Tumor Proliferation Rate (T/C) [2, 6]: 65.18%
- tumor growth inhibition rate [2, 6]: 29.48%
- Inhibition Rate (%) ([2]; dose 25 mg/kg): 15.92%
- Relative Tumor Proliferation Rate (T/C) ([2]; dose 25 mg/kg): 75.39%
- Relative Tumor Volume (RTV) ([2]; dose 25 mg/kg): 8.48 ± 1.37
- Tumor Weight ([2]; dose 25 mg/kg): 1.90 ± 0.33 g
- Tumor Volume (mm3) (d 1) ([2]; dose 25 mg/kg): 189.51 ± 28.58 mm3
- Tumor Volume (mm3) (d30) ([2]; dose 25 mg/kg): 1596.76 ± 293.76 mm3
- Inhibition Rate (%) ([2]; dose 50 mg/kg): 29.48%
- Relative Tumor Proliferation Rate (T/C) ([2]; dose 50 mg/kg): 65.18%
- Relative Tumor Volume (RTV) ([2]; dose 50 mg/kg): 7.33 ± 2.36
- Tumor Weight ([2]; dose 50 mg/kg): 1.60 ± 0.45 g
- Tumor Volume (mm3) (d 1) ([2]; dose 50 mg/kg): 184.06 ± 32.38 mm3
- Tumor Volume (mm3) (d30) ([2]; dose 50 mg/kg): 1344.04 ± 466.62 mm3
- Inhibition Rate (%) ([2]; dose 100 mg/kg): 51.81%
- Relative Tumor Proliferation Rate (T/C) ([2]; dose 100 mg/kg): 41.36%
- Relative Tumor Volume (RTV) ([2]; dose 100 mg/kg): 4.65 ± 1.77
- Tumor Weight ([2]; dose 100 mg/kg): 1.09 ± 0.34 g
- Tumor Volume (mm3) (d 1) ([2]; dose 100 mg/kg): 184.80 ± 33.56 mm3
- Tumor Volume (mm3) (d30) ([2]; dose 100 mg/kg): 834.34 ± 308.27 mm3
- mouse weight compared with the model group ([2]; mouse, in vivo): no significant changes
- Body Weight (g) (d1) ([2]; mouse, in vivo, 25 mg/kg): 20.78 ± 1.31 g
- Body Weight (g) (d30) ([2]; mouse, in vivo, 25 mg/kg): 20.59 ± 1.54 g
- Body Weight (g) (d1) ([2]; mouse, in vivo, 50 mg/kg): 21.01 ± 1.20 g
- Body Weight (g) (d30) ([2]; mouse, in vivo, 50 mg/kg): 20.72 ± 1.29 g
- Body Weight (g) (d1) ([2]; mouse, in vivo, 100 mg/kg): 20.65 ± 1.27 g
- Body Weight (g) (d30) ([2]; mouse, in vivo, 100 mg/kg): 20.32 ± 1.55 g
- Relative Tumor Proliferation Rate (T/C) [3, 7]: 46.70%
- tumor growth inhibition rate [3, 7]: 59.25%
- Relative Tumor Proliferation Rate (T/C) [3, 8]: 81.39%
- tumor growth inhibition rate [3, 8]: 15.57%
- tumor volume and relative tumor volume compared with the model group ([3]; T-24, low, medium and high doses, P<0.05): significantly lower
- Relative Tumor Proliferation Rate (T/C) [3, 9]: 64.89%
- tumor growth inhibition rate [3, 9]: 41.99%
- Inhibition Rate (%) ([3]; dose 25 mg/kg): 15.57%
- Relative Tumor Proliferation Rate (T/C) ([3]; dose 25 mg/kg): 81.39%
- Relative Tumor Volume (RTV) ([3]; dose 25 mg/kg): 10.75 ± 1.34
- Tumor Weight ([3]; dose 25 mg/kg): 1.58 ± 0.28 g
- Tumor Volume (mm3) (d 1) ([3]; dose 25 mg/kg): 132.64 ± 19.75 mm3
- Tumor Volume (mm3) (d30) ([3]; dose 25 mg/kg): 1414.36 ± 188.91 mm3
- Inhibition Rate (%) ([3]; dose 50 mg/kg): 41.99%
- Relative Tumor Proliferation Rate (T/C) ([3]; dose 50 mg/kg): 64.89%
- Relative Tumor Volume (RTV) ([3]; dose 50 mg/kg): 8.57 ± 1.31
- Tumor Weight ([3]; dose 50 mg/kg): 1.09 ± 0.42 g
- Tumor Volume (mm3) (d 1) ([3]; dose 50 mg/kg): 133.67 ± 5.07 mm3
- Tumor Volume (mm3) (d30) ([3]; dose 50 mg/kg): 1142.42 ± 146.91 mm3
- Inhibition Rate (%) ([3]; dose 100 mg/kg): 59.25%
- Relative Tumor Proliferation Rate (T/C) ([3]; dose 100 mg/kg): 46.70%
- Relative Tumor Volume (RTV) ([3]; dose 100 mg/kg): 6.17 ± 1.26
- Tumor Weight ([3]; dose 100 mg/kg): 0.76 ± 0.19 g
- Tumor Volume (mm3) (d 1) ([3]; dose 100 mg/kg): 133.57 ± 18.08 mm3
- Tumor Volume (mm3) (d30) ([3]; dose 100 mg/kg): 809.94 ± 131.43 mm3
- mouse weight compared with the model group ([3]; mouse, in vivo): no significant changes
- Body Weight (g) (d1) ([3]; mouse, in vivo, 25 mg/kg): 19.91 ± 0.28 g
- Body Weight (g) (d30) ([3]; mouse, in vivo, 25 mg/kg): 24.81 ± 2.42 g
- Body Weight (g) (d1) ([3]; mouse, in vivo, 50 mg/kg): 19.74 ± 0.82 g
- Body Weight (g) (d30) ([3]; mouse, in vivo, 50 mg/kg): 25.84 ± 0.73 g
- Body Weight (g) (d1) ([3]; mouse, in vivo, 100 mg/kg): 19.51 ± 0.50 g
- Body Weight (g) (d30) ([3]; mouse, in vivo, 100 mg/kg): 25.92 ± 1.35 g
